Species on record: Homo sapiens
Experiment: Compound was tested for inhibitory activity against collagen induced platelet aggregation
Type: functional

Row | IC50 | Compound
1 | 2.9 nM | O=C(O)COc1cccc2c1C[C@H]1C[C@@H](O)[C@H](C#C[C@@H](O)C3CCCCC3)[C@H]1C2
2 | 52 nM | O=C(O)COc1cccc2c1C[C@H]1C[C@@H](O)[C@H](C#C[C@@H](O)C3CCCCC3)[C@@H]1C2
